Calls of active or inactive are those of the source. The rule behind the calls is not given here.
Key:
[1] = test system: BJ; assay: Antiproliferative activity against human BJ cells after 72 hrs by MTT assay; assay type: cell-based
[2] = test system: MCF7; assay: Antiproliferative activity against human MCF7 cells after 72 hrs by MTT assay; assay type: functional, cell-based; conditions: MCF7, 72 h
[3] = test system: HeLa; assay: Antiproliferative activity against human HeLa cells after 72 hrs by MTT assay; assay type: functional, cell-based
[4] = Drug uptake in human Caki2 cells at 50 uM measured after 5 hrs by Phalloidin CruzFluorTM 488 conjugate/propidium iodide staining based fluorescence microscopic analysis; assay type: ADME, cell-based; conditions: caki-2, 5 h
[5] = test system: Calf thymus DNA; assay: Binding affinity to calf thymus DNA assessed as change in melting temperature at drug/DNA ratio of 0.25 by spectrophotmetric method; assay type: nucleic-acid assay; conditions: Bos taurus
[6] = test system: SW-620; assay: Antiproliferative activity against human SW620 cells after 72 hrs by MTT assay; assay type: functional, cell-based; conditions: SW-620, 72 h
[7] = test system: Calf thymus DNA; assay: Binding affinity to calf thymus DNA at 1 to 50 uM by circular dichroism spectral analysis; assay type: nucleic-acid assay; conditions: Bos taurus
[8] = test system: CAKI-2; assay: Cytotoxicity against human Caki2 cells after 72 hrs by MTT assay; assay type: functional, cell-based; conditions: CAKI-2, 72 h
[9] = target: T1, DNA topoisomerase 1 (Homo sapiens) (UniProt P11387); assay: Inhibition of human topoisomerase1-mediated DNA relaxation assessed as DNA intercalation at 5 to 50 uM using supercoiled pUC19 as substrate pretreated with substrate for 45 mins followed by enzyme addition measured by agarose gel electrophoresis
T1 sequence (whole entry): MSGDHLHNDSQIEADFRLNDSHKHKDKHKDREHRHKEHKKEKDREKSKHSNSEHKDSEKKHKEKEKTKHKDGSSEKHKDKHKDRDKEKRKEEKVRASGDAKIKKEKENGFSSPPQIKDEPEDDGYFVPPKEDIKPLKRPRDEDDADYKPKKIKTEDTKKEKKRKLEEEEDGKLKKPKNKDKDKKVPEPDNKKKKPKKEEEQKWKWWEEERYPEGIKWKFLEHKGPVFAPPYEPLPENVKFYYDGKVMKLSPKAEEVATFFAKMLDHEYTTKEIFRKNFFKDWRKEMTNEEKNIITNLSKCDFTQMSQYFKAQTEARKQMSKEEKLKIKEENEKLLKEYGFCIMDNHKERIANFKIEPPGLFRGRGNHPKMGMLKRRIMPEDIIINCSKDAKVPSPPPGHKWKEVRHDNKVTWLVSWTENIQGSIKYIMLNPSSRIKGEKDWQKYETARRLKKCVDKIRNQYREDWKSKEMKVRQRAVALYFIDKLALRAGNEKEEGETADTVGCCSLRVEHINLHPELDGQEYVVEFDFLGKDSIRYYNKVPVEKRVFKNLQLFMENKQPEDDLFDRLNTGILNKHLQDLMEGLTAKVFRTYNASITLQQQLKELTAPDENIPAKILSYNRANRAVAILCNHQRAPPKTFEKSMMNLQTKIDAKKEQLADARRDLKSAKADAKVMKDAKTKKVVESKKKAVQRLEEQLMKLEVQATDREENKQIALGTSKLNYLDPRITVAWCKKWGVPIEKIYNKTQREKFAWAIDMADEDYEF

[10] = target: T1, DNA topoisomerase 1 (Homo sapiens); assay: Poison activity at human topoisomerase1 assessed as accumulation of nicked DNA at 20 uM using supercoiled pUC19 as substrate pretreated with substrate for 45 mins followed by enzyme addition measured by agarose gel electrophoresis relative to control
[11] = Drug uptake in nucleolus of human Caki2 cells at 50 uM measured after 5 hrs by Phalloidin CruzFluorTM 488 conjugate/propidium iodide staining based fluorescence microscopic analysis; assay type: ADME, subcellular; conditions: caki-2, 5 h
[12] = Drug uptake in nucleus of human Caki2 cells at 50 uM measured after 5 hrs by Phalloidin CruzFluorTM 488 conjugate/propidium iodide staining based fluorescence microscopic analysis; assay type: ADME, subcellular; conditions: caki-2, 5 h
[13] = test system: HepG2; assay: Antiproliferative activity against human HepG2 cells after 72 hrs by MTT assay; assay type: functional, cell-based; conditions: HepG2, 72 h
[14] = test system: Calf thymus DNA; assay: Binding affinity to calf thymus DNA assessed as change in melting temperature at drug/DNA ratio of 0.5 by spectrophotmetric method; assay type: nucleic-acid assay; conditions: Bos taurus
[15] = test system: SW-620; assay: Induction of apoptosis in human SW620 cells assessed as phenotypic changes after 24 to 48 hrs by microscopic analysis; assay type: functional, cell-based
[16] = test system: HeLa; assay: Induction of apoptosis in human HeLa cells assessed as activation of caspase-8 at 0.5 uM after 24 to 48 hrs by colorimetric assay; assay type: functional, cell-based
[17] = test system: SW-620; assay: Cell cycle arrest in human SW620 cells assessed as accumulation at subG1 phase at 0.5 to 1 uM after 24 hrs by propidium iodide staining based flow cytometric method; assay type: functional
[18] = test system: SW-620; assay: Induction of apoptosis in human SW620 cells assessed as activation of caspase-6 at 0.5 uM measured after 48 hrs by colorimetric assay; assay type: functional, cell-based
[19] = test system: SW-620; assay: Induction of apoptosis in human SW620 cells assessed as activation of caspase-8 at 0.5 uM after 24 to 48 hrs by colorimetric assay; assay type: functional, cell-based
[20] = test system: SW-620; assay: Cell cycle arrest in human SW620 cells assessed as accumulation at subG1 phase at 0.5 uM after 48 hrs by propidium iodide staining based flow cytometric method (reference value: 4.1 to 11.3 %); assay type: functional
[21] = test system: Calf thymus DNA; assay: Binding affinity to calf thymus DNA assessed as change in melting temperature at drug/DNA ratio of 1 by spectrophotmetric method; assay type: nucleic-acid assay; conditions: Bos taurus
[22] = test system: HeLa; assay: Cell cycle arrest in human HeLa cells assessed as accumulation at subG1 phase at 1 uM after 48 hrs by propidium iodide staining based flow cytometric method (reference value: 17 to 20.1 %); assay type: functional
[23] = Drug uptake in cytoplasm of human Caki2 cells at 50 uM measured after 5 hrs by Phalloidin CruzFluorTM 488 conjugate/propidium iodide staining based fluorescence microscopic analysis; assay type: ADME, subcellular; conditions: caki-2, 5 h
[24] = test system: SW-620; assay: Cell cycle arrest in human SW620 cells assessed as accumulation at subG1 phase at 1 uM after 48 hrs by propidium iodide staining based flow cytometric method (reference value: 4.1 to 11.3 %); assay type: functional
[25] = test system: HeLa; assay: Induction of apoptosis in human HeLa cells assessed as phenotypic changes after 24 to 48 hrs by microscopic analysis; assay type: functional, cell-based
[26] = test system: SW-620; assay: Induction of apoptosis in human SW620 cells assessed as activation of caspase-2 at 0.5 uM measured after 48 hrs by colorimetric assay; assay type: functional, cell-based
[27] = test system: HeLa; assay: Cell cycle arrest in human HeLa cells assessed as accumulation at subG1 phase at 0.5 uM after 48 hrs by propidium iodide staining based flow cytometric method (reference value: 17 to 20.1 %); assay type: functional
[28] = target: DNA topoisomerase 2-alpha (Homo sapiens) (UniProt P11388); assay: Poison activity at human topoisomerase2 assessed as accumulation of linear DNA at 10 to 50 uM using supercoiled pUC19 as substrate pretreated with substrate for 45 mins followed by […] measured by ethidium bromide staining based agarose gel electrophoresis
Chain of DNA topoisomerase 2-alpha (Homo sapiens) (P11388 whole entry): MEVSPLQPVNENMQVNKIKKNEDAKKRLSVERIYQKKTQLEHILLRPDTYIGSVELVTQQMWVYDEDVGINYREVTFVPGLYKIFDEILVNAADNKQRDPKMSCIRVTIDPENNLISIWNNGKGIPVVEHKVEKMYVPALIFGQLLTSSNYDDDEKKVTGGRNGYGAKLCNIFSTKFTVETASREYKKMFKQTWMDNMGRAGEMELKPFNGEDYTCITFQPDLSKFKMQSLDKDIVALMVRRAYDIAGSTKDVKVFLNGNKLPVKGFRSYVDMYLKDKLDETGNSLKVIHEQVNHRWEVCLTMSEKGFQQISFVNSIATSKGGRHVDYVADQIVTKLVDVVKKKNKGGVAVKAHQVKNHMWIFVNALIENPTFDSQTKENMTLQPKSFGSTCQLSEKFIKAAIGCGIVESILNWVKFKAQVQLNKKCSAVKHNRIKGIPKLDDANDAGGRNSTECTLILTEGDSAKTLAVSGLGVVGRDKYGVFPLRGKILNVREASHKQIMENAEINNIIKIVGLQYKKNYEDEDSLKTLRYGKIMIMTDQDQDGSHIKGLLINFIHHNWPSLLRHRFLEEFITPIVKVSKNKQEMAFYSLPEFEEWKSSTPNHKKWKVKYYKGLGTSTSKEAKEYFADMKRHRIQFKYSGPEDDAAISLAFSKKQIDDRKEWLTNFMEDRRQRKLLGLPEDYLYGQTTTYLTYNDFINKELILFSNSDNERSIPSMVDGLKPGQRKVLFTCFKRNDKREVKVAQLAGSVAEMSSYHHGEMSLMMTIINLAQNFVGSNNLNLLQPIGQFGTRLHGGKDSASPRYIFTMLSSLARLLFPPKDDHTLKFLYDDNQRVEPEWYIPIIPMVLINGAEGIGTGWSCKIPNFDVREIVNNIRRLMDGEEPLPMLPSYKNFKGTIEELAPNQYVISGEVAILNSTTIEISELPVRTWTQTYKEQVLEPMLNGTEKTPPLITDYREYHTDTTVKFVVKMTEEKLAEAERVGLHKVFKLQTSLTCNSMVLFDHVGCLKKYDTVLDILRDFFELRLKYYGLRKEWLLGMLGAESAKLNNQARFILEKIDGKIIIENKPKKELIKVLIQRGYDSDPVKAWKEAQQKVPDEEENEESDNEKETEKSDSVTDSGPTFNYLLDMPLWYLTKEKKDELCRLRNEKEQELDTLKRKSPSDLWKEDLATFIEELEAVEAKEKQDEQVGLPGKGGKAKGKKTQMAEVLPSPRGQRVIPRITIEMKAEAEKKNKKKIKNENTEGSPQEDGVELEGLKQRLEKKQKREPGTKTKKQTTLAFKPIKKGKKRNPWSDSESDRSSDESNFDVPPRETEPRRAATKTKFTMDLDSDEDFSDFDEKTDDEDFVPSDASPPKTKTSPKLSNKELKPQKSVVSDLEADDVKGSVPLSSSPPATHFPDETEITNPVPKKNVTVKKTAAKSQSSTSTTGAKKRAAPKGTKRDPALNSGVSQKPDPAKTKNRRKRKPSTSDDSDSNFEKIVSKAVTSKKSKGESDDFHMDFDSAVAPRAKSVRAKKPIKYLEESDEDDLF

[29] = test system: HeLa; assay: Cell cycle arrest in human HeLa cells assessed as accumulation at subG1 phase at 0.5 to 1 uM after 24 hrs by propidium iodide staining based flow cytometric method; assay type: functional

| IC50 [2] [µM] | IC50 [3] [µM] | Drug uptake [4] | ΔTm [5] [°C] | IC50 [6] [µM] | Activity [7] | Drug uptake [12] | IC50 [13] [µM] | ΔTm [14] [°C] | Compound | IC50 [1] [µM] | IC50 [8] [µM] | also measured |
| --- | --- | --- | --- | --- | --- | --- | --- | --- | --- | --- | --- | --- |
| 23.4 | 15.4 | Active | 9.3 | 35 | Active | Active | 9.01 | 18.5 | Cl.Cl.c1ccc2c(c1)CN(c1nc3ccc(C4=NCCN4)cc3[nH]1)/C2=N/c1nc2ccc(C3=NCCN3)cc2[nH]1 | 22.9 | 80.2 | inhibition (qualitative) [9]: Active; fold change (FC) [10]: 1.8; Drug uptake [11]: Active |
| 0.36 | 0.32 | Active | 1.2 | 0.15 | Active | Active | 0.34 | 3.2 | CC(C)NC(=N)c1ccc2nc(N3Cc4ccccc4C3=O)sc2c1.Cl | 0.05 | 0.75 | Activity [15]: Active; Activity [16]: inactive; Activity [17]: inactive; Activity [18]: Active; Activity [19]: inactive; Activity [20]: 33.9%; ΔTm [21]: 4.4 °C; Activity [22]: 38.1%; Drug uptake [23]: Active; Activity [24]: 59.9%; Activity [25]: Active; Activity [26]: Active; Activity [27]: 45.7%; Activity [28]: Active; Activity [29]: inactive |

— ChEMBL document CHEMBL4219121, “Synthesis, antitumor activity and DNA binding features of benzothiazolyl and benzimidazolyl substituted isoindolines” (Bioorg Med Chem, 2018)
